Measured values reported in US8461305B2, “L-fucose α1→6 specific lectin” (J-Oil Mills, Inc., priority 2008, dated 2013).

Assay: frontal affinity chromatography (FAC), association constant to PA sugar chains without L-fucose
Assay type: binding
Protocol: The following section will describe a method of calculating an association constant by frontal affinity chromatography (FAC). This method is based on the following principle. […] Then, the elution front end (front) is observed immediately. When there is an affinity with lectin, the elution of the sugar chain is delayed.
The preparation of a lectin column used in the apparatus is performed in the method as described below. 1. Purified lectin is dissolved in 0.1 to 0.2M of NaHCO3 buffer solution (pH 8.3 to 8.5). 2. The lectin is immobilized, via a lectin primary amino group, a carrier such as NHS activated sepharose. 3. Then, the lectin is blocked by Tris buffer solution including primary amine or ethanolamine for example. 4. Lectin-sepharose is suspended in 10 mM Tris buffer, including 0.8% of NaCl (pH 7.4, TBS). Then, lectin immobilized resin is filled in a miniature column (φ2 mm×10 mm, 31.4 μl). 5. The miniature column in which the lectin immobilized resin is filled is protected by a holder and the lectin column is connected to an FAC automatic analysis apparatus (FAC-1, SHIMADZU CORPORATION).
Then, the elution of the PA sugar chain from the column is detected by a fluorescence detector (excitation wavelength/fluorescence wavelength: 310 nm/380 nm).
Based on the detection data, by using the elution front end (Vo) of the sugar chain (PA rhamnose) not interacting with lectin as a reference, the delay (V−Vo) of the elution front end (V) of a sugar chain interacting with lectin is calculated as an interaction strength. Then, based on the following FAC criteria expressions, the association constant (Ka) between the sugar chain and lectin is calculated based on V−Vo and Bt. If the interaction strength (V−Vo value) and the association constant are higher, a higher affinity is caused between lectin and an L-fucose α1→6 sugar chain.
[In the formula, A means substance used for the elution, Ao means the initial concentration of the substance A, B means a immobilized ligand, V means the elution volume, Vo means the elution front end volume of the substance not interacting with the immobilized ligand B at all, Bt means an effective ligand amount, Kd means a dissociation constant (an inverse of the association constant)].
Pyridylaminated (PA) sugar chains shown in FIG. 1 and FIG. 2 were used to frontal affinity chromatography (FAC) analysis. PA sugars were purchased from TAKARA BIO INC., SEIKAGAKU BIOBUSINESS CORPORATION, and Masuda Chemical Industries co., LTD. PA sugar were also obtained by pyridylaminating, by GlycoTAG®(TAKARA BIO INC.), an unlabeled sugar chain or a sugar chain obtained by subjecting a sugar chain to enzyme digestion for example.
Lectin was dissolved in 0.2 M NaHCO3 buffer solution (pH 8.3) including 0.5 M NaCl and coupled to the NHS-activated sepharose (GE Healthcare Bioscience) by following the manufacturer's instructions. Then, lectin immobilized sepharose was suspended in 10 mM Tris buffer (pH 7.4, TBS) including […] and the resultant matter was filled in a miniature column (φ2 mm×10 mm, 31.4 μl).
Frontal affinity chromatography was performed using FAC automatic analysis apparatus (FAC-1, SHIMADZU CORPORATION). In particular, the above-prepared lectin column was inserted to a stainless steel holder and the holder was connected to FAC-1 apparatus. The flow rate and the column temperature were maintained at 0.125 ml/min and 25 degrees C., respectively. After the miniature column was equilibrated by the TBS, an excessive volume (0.5 ml to 4 ml) of a PA sugar chain (3.75 nM or 7.5 nM) was continuously inputted to the column using an automatic sampling apparatus.
The fluorescent strength of the eluate of the PA sugar (excitation wavelength of 310 nm and fluorescence wavelength of 380 nm) was monitored to measure the interaction strength [a difference of the front end eluate to the standard oligosaccharide (PA rhamnose): V−V0]. […]

Substance: Lepista sordida lectin [LSL, novel lectin purified from the mushroom Lepista sordida]
- binding to sugar chain not having L-fucose (FAC): not detected at all
- association constant Ka (Sugar chain No. 001, sugar chain not having L-fucose): <1000 M⁻¹
- association constant Ka (Sugar chain No. 002, sugar chain not having L-fucose): <1000 M⁻¹
- association constant Ka (Sugar chain No. 003, sugar chain not having L-fucose): <1000 M⁻¹
- association constant Ka (Sugar chain No. 004, sugar chain not having L-fucose): <1000 M⁻¹
- association constant Ka (Sugar chain No. 005, sugar chain not having L-fucose): <1000 M⁻¹
- association constant Ka (Sugar chain No. 006, sugar chain not having L-fucose): <1000 M⁻¹
- association constant Ka (Sugar chain No. 007, sugar chain not having L-fucose): <1000 M⁻¹
- association constant Ka (Sugar chain No. 008, sugar chain not having L-fucose): <1000 M⁻¹
- association constant Ka (Sugar chain No. 009, sugar chain not having L-fucose): <1000 M⁻¹
- association constant Ka (Sugar chain No. 010, sugar chain not having L-fucose): <1000 M⁻¹
- association constant Ka (Sugar chain No. 011, sugar chain not having L-fucose): <1000 M⁻¹
- association constant Ka (Sugar chain No. 012, sugar chain not having L-fucose): <1000 M⁻¹
- association constant Ka (Sugar chain No. 013, sugar chain not having L-fucose): <1000 M⁻¹
- association constant Ka (Sugar chain No. 014, sugar chain not having L-fucose): <1000 M⁻¹
- association constant Ka (Sugar chain No. 101, sugar chain not having L-fucose): <1000 M⁻¹
- association constant Ka (Sugar chain No. 103, sugar chain not having L-fucose): <1000 M⁻¹
- association constant Ka (Sugar chain No. 104, sugar chain not having L-fucose): <1000 M⁻¹
- association constant Ka (Sugar chain No. 105, sugar chain not having L-fucose): <1000 M⁻¹
- association constant Ka (Sugar chain No. 107, sugar chain not having L-fucose): <1000 M⁻¹
- association constant Ka (Sugar chain No. 108, sugar chain not having L-fucose): <1000 M⁻¹
- association constant Ka (Sugar chain No. 301, sugar chain not having L-fucose): <1000 M⁻¹
- association constant Ka (Sugar chain No. 304, sugar chain not having L-fucose): <1000 M⁻¹
- association constant Ka (Sugar chain No. 305, sugar chain not having L-fucose): <1000 M⁻¹
- association constant Ka (Sugar chain No. 307, sugar chain not having L-fucose): <1000 M⁻¹
- association constant Ka (Sugar chain No. 308, sugar chain not having L-fucose): <1000 M⁻¹
- association constant Ka (Sugar chain No. 313, sugar chain not having L-fucose): <1000 M⁻¹
- association constant Ka (Sugar chain No. 314, sugar chain not having L-fucose): <1000 M⁻¹
- association constant Ka (Sugar chain No. 323, sugar chain not having L-fucose): <1000 M⁻¹
- association constant Ka (Sugar chain No. 501, sugar chain not having L-fucose): <1000 M⁻¹
- association constant Ka (Sugar chain No. 502, sugar chain not having L-fucose): <1000 M⁻¹
- association constant Ka (Sugar chain No. 503, sugar chain not having L-fucose): <1000 M⁻¹
- association constant Ka (Sugar chain No. 504, sugar chain not having L-fucose): <1000 M⁻¹
- association constant Ka (Sugar chain No. 701, sugar chain not having L-fucose): <1000 M⁻¹
- association constant Ka (Sugar chain No. 702, sugar chain not having L-fucose): <1000 M⁻¹
- association constant Ka (Sugar chain No. 703, sugar chain not having L-fucose): <1000 M⁻¹
- association constant Ka (Sugar chain No. 704, sugar chain not having L-fucose): <1000 M⁻¹
- association constant Ka (Sugar chain No. 705, sugar chain not having L-fucose): <1000 M⁻¹
- association constant Ka (Sugar chain No. 706, sugar chain not having L-fucose): <1000 M⁻¹
- association constant Ka (Sugar chain No. 707, sugar chain not having L-fucose): <1000 M⁻¹
- association constant Ka (Sugar chain No. 708, sugar chain not having L-fucose): <1000 M⁻¹
- association constant Ka (Sugar chain No. 709, sugar chain not having L-fucose): <1000 M⁻¹
- association constant Ka (Sugar chain No. 710, sugar chain not having L-fucose): <1000 M⁻¹
- association constant Ka (Sugar chain No. 711, sugar chain not having L-fucose): <1000 M⁻¹
- association constant Ka (Sugar chain No. 712, sugar chain not having L-fucose): <1000 M⁻¹
- association constant Ka (Sugar chain No. 713, sugar chain not having L-fucose): <1000 M⁻¹
- association constant Ka (Sugar chain No. 715, sugar chain not having L-fucose): <1000 M⁻¹
- association constant Ka (Sugar chain No. 716, sugar chain not having L-fucose): <1000 M⁻¹
- association constant Ka (Sugar chain No. 717, sugar chain not having L-fucose): <1000 M⁻¹
- association constant Ka (Sugar chain No. 724, sugar chain not having L-fucose): <1000 M⁻¹
- association constant Ka (Sugar chain No. 725, sugar chain not having L-fucose): <1000 M⁻¹
- association constant Ka (Sugar chain No. 728, sugar chain not having L-fucose): <1000 M⁻¹
- association constant Ka (Sugar chain No. 732, sugar chain not having L-fucose): <1000 M⁻¹
- association constant Ka (Sugar chain No. 733, sugar chain not having L-fucose): <1000 M⁻¹
- association constant Ka (Sugar chain No. 734, sugar chain not having L-fucose): <1000 M⁻¹
- association constant Ka (Sugar chain No. 735, sugar chain not having L-fucose): <1000 M⁻¹
- association constant Ka (Sugar chain No. 736, sugar chain not having L-fucose): <1000 M⁻¹
- association constant Ka (Sugar chain No. 737, sugar chain not having L-fucose): <1000 M⁻¹
- association constant Ka (Sugar chain No. 738, sugar chain not having L-fucose): <1000 M⁻¹
- association constant Ka (Sugar chain No. 901, sugar chain not having L-fucose): <1000 M⁻¹
- association constant Ka (Sugar chain No. 902, sugar chain not having L-fucose): <1000 M⁻¹
- association constant Ka (Sugar chain No. 903, sugar chain not having L-fucose): <1000 M⁻¹
- association constant Ka (Sugar chain No. 905, sugar chain not having L-fucose): <1000 M⁻¹
- association constant Ka (Sugar chain No. 907, sugar chain not having L-fucose): <1000 M⁻¹
